Source: the RepoRT retention time repository (doi:10.1016/j.chroma.2019.01.023)

Assays:
Settings in all cases: stereoisomer not certain
[1] = RP, Phenomenex Kinetex C18, 150 × 2.1 mm, 1.7 µm, 30 °C, 0.3 mL/min, estimated dead time 1.1 min; A: water + 0.1% formic acid, pH 3; B: acetonitrile + 0.1% formic acid, pH 3; gradient (min/%B) 0/2 14/100 17/100 17.1/2 25/2
[2] = HILIC, Merck SeQuant ZIC-pHILIC, 150 × 2.1 mm, 5 µm, 40 °C, 0.3 mL/min, estimated dead time 1.1 min; A: acetonitrile; B: water + 2.8 mM ammonium formate, pH 9; gradient (min/%B) 0/5 1/5 10/51 13/51 13.1/5 20/5
[3] = HILIC, Waters ACQUITY UPLC BEH Amide, 150 × 2.1 mm, 1.7 µm, 40 °C, 0.5 mL/min, estimated dead time 0.66 min; A: 5% water + 95% acetonitrile; B: 70% water + 30% acetonitrile + 10 mM ammonium formate, pH 6.5; gradient (min/%B) 0/0 2/0 20/70 23/70 24/0 31/0

SMILES	LC retention time [1]	LC retention time [2]	LC retention time [3]
NC(=O)c1ccc[n+](C2OC(COP(=O)(O)OP(=O)(O)OCC3OC(n4cnc5c(N)ncnc54)C(OP(=O)(O)O)C3O)C(O)C2O)c1 (configuration not stated) [NADP]	1.41 min		
NC(=O)CC(N)C(=O)O (configuration not stated) [ASPARAGINE]		9.25 min	11.5 min
O=C(O)Cc1cnc[nH]1 [4-IMIDAZOLEACETATE]		8.13 min	9.86 min
CCC(O)C(=O)[O-] (configuration not stated) [2-HYDROXYBUTYRATE]	2.37 min		
NC1C(O)OC(COS(=O)(=O)O)C(O)C1O (configuration not stated) [GLUCOSAMINE 6-SULFATE]		10.5 min	10.6 min
OCC1OC(OCC2OC(O)C(O)C(O)C2O)C(O)C(O)C1O (configuration not stated) [MELIBIOSE]		9.37 min	11.8 min
CNC(CC(=O)O)C(=O)O (configuration not stated) [N-METHYLASPARTATE]		8.28 min	11.6 min
O=C([O-])Cc1ccccc1 [PHENYLACETATE]	3.97 min		
OCC1OC(OC2OC(CO)C(O)C(O)C2O)C(O)C(O)C1O (configuration not stated) [TREHALOSE]		9.23 min	11.3 min
C[n+]1cccc(C(=O)[O-])c1 [TRIGONELLINE]			7.85 min
Cn1cnc(C[C@H](N)C(=O)O)c1 [1-METHYL-L-HISTIDINE]		8.97 min	13.2 min
Cn1cncc1CC(NC(=O)CCN)C(=O)O (configuration not stated) [ANSERINE]		10.1 min	12.5 min
NC(CO)Cc1cnc[nH]1 (configuration not stated) [HISTIDINOL]			9.82 min
Cn1cncc1CCN [3-METHYLHISTAMINE]			9.57 min
OCCNCCO [DIETHANOLAMINE]			8.78 min
O=C(O)C1CCCN1 (configuration not stated) [PROLINE]		7.67 min	8.55 min
CC1C(=O)Nc2ccccc21 (configuration not stated) [3-METHYL-2-OXINDOLE]			0.84 min
NC(N)=NCC(=O)O [GUANIDINOACETATE]		9.05 min	10.2 min
O=C([O-])c1cc(=O)[nH]c(=O)[nH]1 [OROTATE]		7.34 min	3.49 min
NC(CS(=O)(=O)O)C(=O)O (configuration not stated) [CYSTEATE]		8.92 min	10.8 min
O=CC[C@@H](O)[C@H](O)[C@H](O)CO [2-DEOXY-D-GLUCOSE]		8.23 min	4.02 min
OCC1OC(OC2C(CO)OC(O)C(O)C2O)C(O)C(O)C1O (configuration not stated) [CELLOBIOSE]			10.9 min

SMILES	LC retention time [1]	LC retention time [2]	LC retention time [3]
O=c1cccc[nH]1 [2-HYDROXYPYRIDINE]			1.56 min
NCCC(=O)O [BETA-ALANINE]			10.4 min
C[N+](C)(C)CCOP(=O)(O)OP(=O)([O-])OCC1OC(n2ccc(N)nc2=O)C(O)C1O (configuration not stated) [CITICOLINE]		8.89 min	13.4 min
NCCc1ccccc1 [PHENETHYLAMINE]			7 min
C[n+]1cccc(C(N)=O)c1 [1-METHYLNICOTINAMIDE]			8.27 min
Cc1cnc(=O)[nH]c1N [5-METHYLCYTOSINE]		6.24 min	5.31 min
COc1ccccc1O [GUAIACOL]			0.89 min
NCc1ccccc1 [BENZYLAMINE]			7.09 min
NC(N)=NC(CC(=O)O)C(=O)O (configuration not stated) [GUANIDINOSUCCINATE]		9 min	10.3 min
CC(=O)NC(CC(N)=O)C(=O)O (configuration not stated) [N-ACETYLASPARAGINE]		7.88 min	8.1 min
NCCS(=O)(=O)O [TAURINE]		9.1 min	8.04 min
O=C1OC(C(O)CO)C(O)C1O [L-GULONOLACTONE]		7.2 min	3.12 min
OCC1OC(OC2(CO)OC(CO)C(O)C2O)C(O)C(O)C1O (configuration not stated) [SUCROSE]		8.77 min	10.2 min
COC1OC(CO)C(O)C(O)C1O (configuration not stated) [METHYL GALACTOSIDE]		6.42 min	4.01 min
NC(=O)c1cccnc1 [NICOTINAMIDE]			1.38 min
NCCCCC(=O)O [5-AMINOPENTANOATE]			10.4 min
NCCCCN [PUTRESCINE]			0.94 min
NC(=O)NC1NC(=O)NC1=O (configuration not stated) [ALLANTOIN]		7.96 min	4.85 min
CCCCC(=O)[O-] [PENTANOATE]			8.25 min
CC(C)C(N)C(=O)O (configuration not stated) [VALINE]		7.72 min	8.75 min
CNCC(=O)O [SARCOSINE]			9.54 min
NC(CC(=O)O)C(=O)O (configuration not stated) [ASPARTATE]			1.93 min
